Measured values: patent publication US20240287172A1, “PROTEIN BINDERS TO IRHOM2 EPITOPES” (SCIRHOM GMBH, priority 2019, published 2024)

System: LPS-induced release of endogenous TNFα from human THP-1 monocytic cells
Experiment: ELISA-based TNFα release assay, LPS-induced, THP-1 cells
Type: cell-based
Details: LPS 50 ng/ml, 2 hours, antibodies purified from hybridoma supernatants and IgG at 10 μg/ml, Batimastat at 10 μM
Description: In the following study, ELISA-based TNFα release assays were performed to verify the inhibitory effects of the purified antibodies of the invention on LPS-induced release of endogenous TNFα from human THP-1 monocytic cells.
In brief, on day 1, Nunc black MaxiSorp® 96-well plates (Thermo Fisher Scientific, USA) were coated overnight with 100 μl per well of mouse anti-human TNFα capture antibody (provided as part of the DuoSet ELISA kit) at 4 μg/ml TBS at 4° C. On day 2, the capture antibody solution was removed and MaxiSorp® plates were blocked with 300 μl per well of TBS, 1% BSA at room temperature for 3 hours. […]
Following another round of 4 times washing with 350 μl TBS-T (Carl Roth, Germany) per well on a 96-head plate washer (Tecan Group, Switzerland) and careful removal of all buffer traces after the fourth cycle, 100 μl AttoPhos substrate solution (Promega, USA) per well was added for incubation in the dark at room temperature for 1 hour. Using an infinite M1000 (Tecan Group, Switzerland) microplate reader, the fluorescence of each well was collected at an excitation wavelength of 435 nm and an emission wavelength of 555 nm. […]

Which inhibition at 10 µM does the source give for CNC(=O)[C@H](Cc1ccccc1)NC(=O)[C@H](CC(C)C)[C@H](CSc1cccs1)C(=O)NO [Batimastat] here?
Its inhibition at 10 µM is 96.2%.
